The values that follow come from patent US7563862B2, “Neural regeneration peptides and methods for their use in treatment of brain damage” (Neuren Pharmaceuticals Limited, priority 2001, dated 2009).

In one experiment the test system is embryonic striatal cells. In words: haptotactic migration assay, striatal cells. Type of experiment: cell-based, rat. The note with it: dishes coated with 150 ng, 48 hrs. The text has this: To test the cell adhesion and neuronal migration inducing properties of the NRPs a haptotactic migration cell assay was developed (Lu et al.,2001). For this purpose Transwell® cell culture dishes (Costar) with fitting inserts having pores therein with a 12 μm pore size were used to cultivate striatal and neocortical cells. In general, a test agent was adhered to the surface of a culture dish and an insert having pores was placed in culture medium over but not in contact with the surface of the culture dish. Test cells were placed in the inserts, and any cells migrating through the pores and onto the surface of the culture dish reflected chemattractiveness by the test molecule. Under these conditions, the surface of the culture dish would, over time, release some NRP molecules into the culture medium. It can be appreciated that the concentration of “free” NRP would be greater nearer the surface of the culture dish than at distances farther away from the culture dish, thereby creating a gradient in NRP concentration. […] By counting the number and morphology of such migrant cells, effects of NRPs on neuronal migration and differentiation can be evaluated. […]
For seeding striatal cells, 1.5 ml of Neurobasal/B27 medium was put into the culture dishes and 0.5 ml of NeurobasaVB27 medium was put into the insert. The assay was ready for cell seeding. […]

Another experiment relates to MEB-5 cells. In words: haptotactic migration assay, MEB-5 cells. As to conditions: 1 ng/ml coating, 200,000 cells. It is filed as cell-based, mouse. The procedure:
NRPs were tested for migration-inducing/chemoattractive activity on mouse neural stem cells, EGF-dependent immortalized mouse neural stem cell line MEB5 and wild-type PC-12 cells in a haptotactic migration assay as described below.
Initial NRP Coating. Control wells of Transwell plates (Coming) with 12 μm pore size were coated in 1.5 ml of the BSA/PBS vehicle. Remaining plates were coated using various concentrations of NRPs ranging between 1-100 ng/ml (prepared in PBS containing 10 ug/ml BSA). The plates were then incubated at 37° C. for 1 hr to coat. Wells were then rinsed 2× with 1 ml sterile PBS.
Laminin ([…]) for MEB-5 cells, PDL (50 μg/ml)+Matrigel for mouse primary stem cells and fibronectin (25 ug/ml)+matrigel for PC-12 cells were used as extracellular matrix (ECM) coating for the cells. All ECM compounds were diluted in PBS. 1.5 ml of the ECM per well was incubated for 2 hrs at room temperature. The wells were then rinsed once with Iml serum-free media (e.g. NB/B27) followed by 1 ml PBS wash.
A 5 ug/mL PDL/PLL mixture (in PBS) was used to coat inserts. Subsequently the inserts were rinsed with MilliQ water. […]

Experiment [1] relates to OTCs of rat embryonic forebrain. In words: embryonic forebrain OTC migration assay (medial ganglionic eminence to cortical anlage). It is filed as cell-based. The procedure:
OTCs of rat embryonic forebrain were prepared as described. Briefly, pregnant rats at E17 gestation were sacrificed, the fetuses rapidly removed. Coronal slices of the forebrain were cut at 400 μm thickness and placed onto millicell PICM ORG50 membranes (Millipore) in 3 cm Petri dishes containing 1 ml of DMEMI/F12, 6.5 mg/ml glucose, 0.1 mM glutamine and 10% FCS for 34 hrs. Afterwards the medium was exchanged to 1 ml Neurobasal/B27, 6.5 mg/ml glucose, 0.1 mM glutamine, to which 10 μl PBS, NRP, or SDF-1 were added for the indicated concentrations and a small DiI (1,1′-dioctodecycyl-3,3,3′3-tetramethylindocarbocyanine) crystal of uniform size was placed in the medial ganglionic eminence (n=10-15) under a stereomicroscope. After 24 hrs cultivation the total number or migrated neurons dispersed in the ganglionic eminence and cortex were counted under an inverted fluorescent microscope.

In experiment [2] the test system is human olfactory ensheating glial (OEG) cells. In words: proliferation of olfactory ensheating glial (OEG) cells. It is filed as cell-based. As to conditions: over 72 hours. The procedure:
To determine whether NRPs might be useful for remyelinating neural tissues, we carried out studies using human olfactory ensheating glial (OEG) cells. OEG cells are being evaluated as a source population of cells for repopulating damaged neural tissue, such as that of the spinal cord. OEG cells were obtained from scrapings of human nasal mucosa using methods that are known in the art. Cells were grown in medium under control conditions and in the presence of NRP-7 SW (SEQ ID NO:24).

Ends that are not written are not given here.

Regarding “KDPEARRAPGSLHPCLAAS-NH2 [NRP-2 segment KS, 19-mer fragment of NRP-2]”, the “migration induction of striatal neurons” value in the experiment on embryonic striatal cells was “substantial migration induction”. In addition, the “more MEB-5 cells migrated compared with BSA-vehicle” value in the experiment with MEB-5 cells turned out to be 109%.
With “SEPEARRAPGRKGGVVCASLAADW-NH2 [NRP-7 segment SW, 24-mer form of mouse NRP-7]”, in experiment [1], the “increase in number of migrating neuronal precursor cells” value is given as 5 fold and the optimum dose was 1 nM. In addition, the “rate of growth of OEG cells” value in experiment [2] is listed as “about 50%”.
